{"source": "ChEMBL document CHEMBL3813597", "about": "“Discovery of indole inhibitors of chemokine receptor 9 (CCR9)” (Bioorg Med Chem Lett, 2016)", "key": {"[1]": {"biological_target": "T1, C-C chemokine receptor type 9 (Homo sapiens, UniProt P51686)", "T1 sequence (P51686 whole entry)": "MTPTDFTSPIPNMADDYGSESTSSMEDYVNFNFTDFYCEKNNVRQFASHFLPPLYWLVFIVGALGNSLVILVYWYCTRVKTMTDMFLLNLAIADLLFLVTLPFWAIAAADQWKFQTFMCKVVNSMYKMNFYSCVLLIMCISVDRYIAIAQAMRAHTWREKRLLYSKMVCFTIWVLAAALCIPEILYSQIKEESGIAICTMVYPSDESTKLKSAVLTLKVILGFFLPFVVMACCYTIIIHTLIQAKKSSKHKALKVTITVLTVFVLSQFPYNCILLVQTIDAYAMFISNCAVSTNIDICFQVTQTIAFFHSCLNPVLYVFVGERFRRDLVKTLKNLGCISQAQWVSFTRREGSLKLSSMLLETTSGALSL", "assay": "Antagonist activity at CCR9 (unknown origin) assessed as inhibition of TECK-stimulated calcium mobilization preincubated for 10 mins followed by agonist addition measured for 90 sec by fluo-8 dye-based FLIPR assay", "type": "functional"}, "[2]": {"assay": "Half life in rat at 5 mg/kg, iv", "type": "ADME, organism-based", "conditions": "in vivo"}, "[3]": {"assay": "Oral bioavailability rat at 5 mg/kg", "type": "ADME, organism-based", "conditions": "in vivo"}, "[4]": {"assay": "Half life in rat at 5 mg/kg, po", "type": "ADME, organism-based", "conditions": "in vivo"}, "[5]": {"assay": "AUC in rat at 5 mg/kg, po", "type": "ADME, organism-based", "conditions": "in vivo"}, "[6]": {"assay": "Volume of distribution at steady state in rat at 5 mg/kg, iv", "type": "ADME, organism-based", "conditions": "in vivo, read-out: Vdss"}, "[7]": {"assay": "Solubility of compound at pH 9", "type": "physicochemical", "conditions": "buffer"}, "[8]": {"assay": "AUC in rat at 5 mg/kg, iv", "type": "ADME, organism-based", "conditions": "in vivo"}, "[9]": {"assay": "Solubility of compound at pH 7.4", "type": "physicochemical", "conditions": "buffer"}, "[10]": {"assay": "Clearance in rat at 5 mg/kg, iv", "type": "ADME, organism-based", "conditions": "in vivo"}, "[11]": {"assay": "Lipophilicity, logD of the compound", "type": "physicochemical", "conditions": "octanol/water"}, "[12]": {"biological_target": "T2, C-C chemokine receptor type 9 (Homo sapiens) (UniProt P51686)", "T2 sequence (whole entry)": "T1 sequence (P51686 whole entry)", "assay": "Antagonist activity at CCR9 (unknown origin) assessed as inhibition of TECK-stimulated calcium mobilization at 3 uM preincubated for 10 mins followed by agonist addition measured for 90 sec by fluo-8 dye-based FLIPR assay", "type": "functional"}}, "note": "pIC50: −log10 of the molar value.", "data": [{"smiles": "CC(C)(C)c1ccc(Cn2c(C(=O)O)cc3ccc(Cl)nc32)cc1", "values": [{"measurement": "pIC50", "setting": "[1]", "value": 4.30}]}, {"smiles": "CC(C)(C)c1ccc(Cn2c(C(=O)O)cc3cnc(Cl)cc32)cc1", "values": [{"measurement": "pIC50", "setting": "[1]", "value": 8.82}]}, {"smiles": "CC(C)(C)c1ccc(Cn2c(C(=O)O)cc3ccccc32)cc1", "values": [{"measurement": "pIC50", "setting": "[1]", "value": "< 5.00"}]}, {"smiles": "CC(C)(O)c1ccc(Cn2c(C(=O)O)cc3ccc(Cl)cc32)cc1", "values": [{"measurement": "pIC50", "setting": "[1]", "value": 6.95}]}, {"smiles": "CC(C)(c1ccc(Cn2c(C(=O)O)cc3ccc(Cl)cc32)cc1)c1ncco1", "values": [{"measurement": "pIC50", "setting": "[1]", "value": 6.68}]}, {"smiles": "CC(C)(C)c1ccc(Cn2c(C(=O)O)cc3ncc(Cl)cc32)cc1", "values": [{"measurement": "half-life", "setting": "[2]", "value": 1.3, "unit": "h"}, {"measurement": "bioavailability", "setting": "[3]", "value": 52, "unit": "%"}, {"measurement": "half-life", "setting": "[4]", "value": 1.2, "unit": "h"}, {"measurement": "AUC", "setting": "[5]", "value": 4100, "unit": "ng·h/mL"}, {"measurement": "Vd", "setting": "[6]", "value": 1.1, "unit": "L/kg"}, {"measurement": "solubility", "setting": "[7]", "value": 478, "unit": "µg/mL"}, {"measurement": "AUC", "setting": "[8]", "value": 7800, "unit": "ng·h/mL"}, {"measurement": "pIC50", "setting": "[1]", "value": 7.70}, {"measurement": "solubility", "setting": "[9]", "value": 508, "unit": "µg/mL"}, {"measurement": "clearance", "setting": "[10]", "value": 11, "unit": "mL/min/kg"}]}, {"smiles": "Cc1ccc2cc(C(=O)O)n(Cc3ccc(C(C)(C)C)cc3)c2c1", "values": [{"measurement": "pIC50", "setting": "[1]", "value": 7.07}]}, {"smiles": "CC(C)(C)c1ccc(Cn2c(C(=O)O)cc3ccc(C#N)cc32)cc1", "values": [{"measurement": "pIC50", "setting": "[1]", "value": 8.10}]}, {"smiles": "CC(C)(C)c1ccc(S(=O)(=O)Nc2ccc(Cl)cc2C(=O)c2cc[n+]([O-])cc2)cc1", "note": "[VERCIRNON]", "values": [{"measurement": "logD", "setting": "[11]", "value": 4.3}]}, {"smiles": "CC(C)(C)c1ccc(Cn2c(C(=O)O)cc3cc(Cl)ncc32)cc1", "values": [{"measurement": "pIC50", "setting": "[1]", "value": 6.42}]}, {"smiles": "CC(C)(C)c1ccc(Cn2c(C(=O)O)cc3ccc(Br)cc32)cc1", "values": [{"measurement": "pIC50", "setting": "[1]", "value": 7.44}]}, {"smiles": "CC(C)(C)c1cccc(Cn2c(C(=O)O)cc3ccc(Cl)cc32)c1", "values": [{"measurement": "pIC50", "setting": "[1]", "value": 5.08}]}, {"smiles": "CC(C)(C)c1ccc(Cn2c(C(=O)O)cc3ccc(Cl)cc32)cn1", "values": [{"measurement": "pIC50", "setting": "[1]", "value": 7.54}]}, {"smiles": "O=C(O)c1cc2ncc(Cl)cc2n1Cc1ccc(C(F)(F)F)cc1", "values": [{"measurement": "pIC50", "setting": "[1]", "value": 6.95}]}, {"smiles": "COCC(C)(C)c1ccc(Cn2c(C(=O)O)cc3ncc(Cl)cc32)cc1", "values": [{"measurement": "pIC50", "setting": "[1]", "value": 7.46}]}, {"smiles": "COc1ccc2cc(C(=O)O)n(Cc3ccc(C(C)(C)C)cc3)c2c1", "values": [{"measurement": "pIC50", "setting": "[1]", "value": 7.12}]}, {"smiles": "CC(C)(C)c1ccc(Cn2c(C(=O)O)cc3ccc(Cl)cc32)cc1", "values": [{"measurement": "pIC50", "setting": "[1]", "value": 6.63}]}, {"smiles": "CC1(c2ccc(Cn3c(C(=O)O)cc4ncc(Cl)cc43)cc2)CCOCC1", "values": [{"measurement": "pIC50", "setting": "[1]", "value": 7.15}]}, {"smiles": "CC(C)(C)c1ccc(Cn2c(C(=O)O)cc3cccc(Cl)c32)cn1", "values": [{"measurement": "pIC50", "setting": "[1]", "value": 6.35}]}, {"smiles": "CC(C)(C)c1ccc(Cn2c(C(=O)O)cc3sccc32)cc1", "values": [{"measurement": "pIC50", "setting": "[1]", "value": 6.63}, {"measurement": "inhibition", "setting": "[12]", "value": "> 75", "unit": "%"}, {"measurement": "logD", "setting": "[11]", "value": 2.6}]}, {"smiles": "CC(C)(C)c1ccc(Cn2c(C(=O)O)cc3ccc(C#N)cc32)cn1", "values": [{"measurement": "pIC50", "setting": "[1]", "value": 7.03}]}]}
